Data from patent US20190216889A1, “METHODS AND COMPOSITIONS FOR TREATMENT OF FIBROSIS” (Children's Hospital Medical Center, priority 2018, published 2019).
“Also recorded” adds a separate entry of the source. Where no end group is shown, it is not given here.

Tests used:
[1] = system: murine model of unilateral renal ischemia/reperfusion (UIR); experiment: Unilateral renal ischemia/reperfusion (UIR) with daily i.p. peptide from day 7, tissues collected day 14; format: in vivo, C57BL6/J mice
Experimental: Starting seven days after surgery, pUR4 (25 mg/kg/d), III-11C (control; 25 mg/kg/d) or PBS were administered daily by intraperitoneal injection. Mice were sacrificed and tissues collected 14 days after surgery.
All procedures were approved by and performed according to the Department of Laboratory Animal Medicine and the Institutional Animal Care and Use Committee at the Cincinnati Children's Hospital Medical Center. Wild type C57BL6/J 9-10-week-old male mice (Jackson Laboratories) were used for these experiments.
Mice were allowed 1-2 weeks of acclimation upon arrival to the animal facility, after which they underwent unilateral ischemia/reperfusion (UIR) according to Le Clef et al., 2016.17 Briefly, mice were anesthetized with 3% isoflurane for surgical prep (abdominal hair removal, animal identification, etc.), and maintained at 1.5% isoflurane on a 37° C. heating pad throughout the procedure. Following surgical exposure of the ventral abdomen, an atraumatic clamp was placed on the left renal artery and vein for 30 minutes; verification of color change following reperfusion was performed by the surgeon before mice were sutured and glued (outer suture reinforcement), given buprenorphine and subcutaneous saline and returned to their cages. For each animal, the contralateral (right) kidney and renal blood vessels were visualized, but remained untouched. Sham animals underwent an identical surgical procedure, except that the left and right renal arteries and veins were exposed, but were not clamped. Seven (7) days after surgery, mice were weighed and randomly assigned to daily intraperitoneal (i.p.) injections of PBS, III-11C (control peptide; 25 mg/kg), or pUR4 (25 mg/kg).
14 days after UIR (7 days after the onset of daily peptide injections), mice were given 100U heparin and anesthetized with isoflurane; blood was collected and animals were perfused with cold PBS through the aortic arch. Kidneys were excised (and the capsule membrane carefully removed), weighed, and then bisected lengthwise; one half was placed in cold 4% paraformaledhyde overnight followed by paraffin embedding, the other half cut into ˜1 mm3 pieces and flash-frozen for RNA and protein isolation.
Fixed kidneys were paraffin embedded, sectioned at 8 μm and mounted onto glass slides. Prior to staining, the sections were deparaffinized in xylene and rehydrated to water through increasing dilutions of ethanol (100%, 95%, 70%, and then 50%). For picrosirius red staining, slides were incubated for 1 hour in 0.1% Sirius Red (in 1.3% aqueous picric acid), washed twice in acidified water (0.5% acetic acid), […] and mounted with Permount. Images were taken at 10× and 40× (Olympus BX-51 with a DS-Ril camera), and the percentage of red staining was quantified using Image J software (NIH) by two observers blinded to experimental conditions.
For immunofluorescent staining, deparaffinized and rehydrated sections were microwaved for 20 minutes in a sodium citrate antigen retrieval solution (Vector H-3300), and then permeabilized in 0.06% triton-X in TBS. Sections were blocked in 10% goat or donkey serum (depending on the secondary antibody) in TBS for 2 hours at room temperature, and then incubated with primary antibody in 1% serum/TBS overnight at 4° C. Antibodies used were as follows: lipocalin-2/NGAL (1:100; JM-3819, MBL Intl Corp), Tim1/Kim1 (1:100; AF1817, R&D Systems), CD45 (1:100; AF114, R&D Systems), fibronectin (1:100; ab2413, Abcam), collagen I (1:100; ab21286, Abcam), vimentin (1:100; ab45939, Abcam), alpha-smooth muscle actin (1:500; A5228, Sigma). Slides were then washed three times in TBST for 5 min each, and incubated with secondary antibodies for 45 minutes at room temperature. In these experiments the following secondary antibodies were used, all from Jackson ImmunoResearch: donkey anti-rabbit 488 (711-545-152), donkey anti-goat 488 (705-545-147), donkey anti-mouse 647 (715-605-150) and donkey anti-rabbit 647 (711-605-152). […]

[2] = target: fibronectin polymerization (Homo sapiens, UniProt P02751); conditions: in vitro; cited from earlier work
fibronectin polymerization, sequence (P02751 32-2477): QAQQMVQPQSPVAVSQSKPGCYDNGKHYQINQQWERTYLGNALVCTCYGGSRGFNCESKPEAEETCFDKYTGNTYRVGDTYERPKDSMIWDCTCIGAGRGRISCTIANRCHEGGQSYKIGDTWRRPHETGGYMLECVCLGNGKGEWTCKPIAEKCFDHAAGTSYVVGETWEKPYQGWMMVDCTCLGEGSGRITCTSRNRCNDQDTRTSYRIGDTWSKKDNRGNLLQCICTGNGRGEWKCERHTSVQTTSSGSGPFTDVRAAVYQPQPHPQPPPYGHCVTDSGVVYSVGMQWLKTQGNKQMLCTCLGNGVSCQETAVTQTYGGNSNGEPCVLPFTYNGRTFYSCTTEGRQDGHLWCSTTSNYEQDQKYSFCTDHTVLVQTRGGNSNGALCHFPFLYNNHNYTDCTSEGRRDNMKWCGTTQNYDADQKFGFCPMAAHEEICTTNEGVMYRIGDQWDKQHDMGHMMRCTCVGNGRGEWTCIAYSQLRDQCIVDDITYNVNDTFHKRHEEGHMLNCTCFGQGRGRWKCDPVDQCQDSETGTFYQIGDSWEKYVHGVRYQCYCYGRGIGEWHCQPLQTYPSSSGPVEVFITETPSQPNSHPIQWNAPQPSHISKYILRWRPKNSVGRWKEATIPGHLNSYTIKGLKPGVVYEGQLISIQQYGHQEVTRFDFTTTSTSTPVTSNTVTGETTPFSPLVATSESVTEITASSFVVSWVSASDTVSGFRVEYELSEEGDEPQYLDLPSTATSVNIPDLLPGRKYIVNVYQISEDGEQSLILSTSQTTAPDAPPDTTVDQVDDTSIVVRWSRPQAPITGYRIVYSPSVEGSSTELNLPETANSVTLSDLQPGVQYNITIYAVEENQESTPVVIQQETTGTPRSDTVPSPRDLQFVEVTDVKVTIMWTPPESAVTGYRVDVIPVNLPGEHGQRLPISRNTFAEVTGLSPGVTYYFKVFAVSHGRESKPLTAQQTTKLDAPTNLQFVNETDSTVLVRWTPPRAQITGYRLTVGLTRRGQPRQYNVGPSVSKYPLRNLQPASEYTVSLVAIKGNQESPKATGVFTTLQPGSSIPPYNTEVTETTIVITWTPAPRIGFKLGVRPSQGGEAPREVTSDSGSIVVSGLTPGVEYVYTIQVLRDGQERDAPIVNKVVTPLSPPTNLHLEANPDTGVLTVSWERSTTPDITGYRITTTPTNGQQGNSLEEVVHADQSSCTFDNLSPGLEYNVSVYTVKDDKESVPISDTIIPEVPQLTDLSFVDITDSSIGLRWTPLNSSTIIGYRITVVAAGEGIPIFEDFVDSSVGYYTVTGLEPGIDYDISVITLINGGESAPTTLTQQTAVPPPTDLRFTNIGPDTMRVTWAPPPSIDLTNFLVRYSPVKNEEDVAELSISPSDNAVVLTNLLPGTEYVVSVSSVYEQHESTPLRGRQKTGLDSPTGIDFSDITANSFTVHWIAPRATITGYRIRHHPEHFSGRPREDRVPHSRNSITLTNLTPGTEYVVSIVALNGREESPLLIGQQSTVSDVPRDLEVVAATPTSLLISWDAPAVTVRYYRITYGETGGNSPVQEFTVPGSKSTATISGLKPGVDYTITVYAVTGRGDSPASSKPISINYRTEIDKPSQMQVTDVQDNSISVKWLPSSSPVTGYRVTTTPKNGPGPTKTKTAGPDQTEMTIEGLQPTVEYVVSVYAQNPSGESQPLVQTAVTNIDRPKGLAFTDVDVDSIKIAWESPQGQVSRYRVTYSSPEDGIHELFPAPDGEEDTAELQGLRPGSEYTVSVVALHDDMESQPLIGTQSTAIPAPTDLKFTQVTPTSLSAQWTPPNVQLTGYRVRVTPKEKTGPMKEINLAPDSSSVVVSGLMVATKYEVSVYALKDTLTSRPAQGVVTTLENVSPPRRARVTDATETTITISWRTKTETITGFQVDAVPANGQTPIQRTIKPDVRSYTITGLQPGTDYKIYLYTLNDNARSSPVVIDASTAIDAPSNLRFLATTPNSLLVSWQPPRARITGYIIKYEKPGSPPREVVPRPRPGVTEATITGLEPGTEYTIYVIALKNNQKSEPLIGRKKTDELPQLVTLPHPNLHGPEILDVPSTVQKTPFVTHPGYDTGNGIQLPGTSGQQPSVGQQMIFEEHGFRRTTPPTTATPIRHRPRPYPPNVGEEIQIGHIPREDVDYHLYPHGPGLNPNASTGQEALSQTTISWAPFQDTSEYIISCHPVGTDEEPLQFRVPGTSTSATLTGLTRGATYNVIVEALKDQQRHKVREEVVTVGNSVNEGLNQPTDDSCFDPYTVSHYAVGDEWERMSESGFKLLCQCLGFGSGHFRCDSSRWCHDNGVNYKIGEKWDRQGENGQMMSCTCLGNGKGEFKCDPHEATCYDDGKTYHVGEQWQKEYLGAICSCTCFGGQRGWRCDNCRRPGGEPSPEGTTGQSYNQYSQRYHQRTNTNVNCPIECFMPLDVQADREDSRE

vascular remodeling = conditions: localized pUR4 treatment; cited from earlier work
liver fibrosis = conditions: localized pUR4 treatment; cited from earlier work
[3] = system: myocardial ischemia/reperfusion (I/R) injury; conditions: cited from earlier work
[4] = system: unilateral ureteral obstruction (UUO); conditions: obstructive model of kidney injury; cited from earlier work
[5] = 2 weeks after UIR, 25 mg/kg/d, 25 mg/kg/day
[6] = 14 days after UIR, 25 mg/kg/d, 25 mg/kg/day
[7] = injured kidney, 2 weeks after UIR, 25 mg/kg/d, 25 mg/kg/day
[8] = injured vs contralateral kidney, 14 days after UIR, 25 mg/kg i.p. daily from day 7, 25 mg/kg
[9] = kidney, 2 weeks after UIR, 25 mg/kg/d
[10] = one week systemic daily administration, up to four weeks after I/R

Q: With “CKDQSPLAGESGETEYITEVYGNQQNPVDIDKKLPNETGFSGNMVETEDT (also: His tag) [pUR4]” as the sequence, how does the “kidney weight / kidney weight-to-body weight ratio” value [1, 5] read?
A: The value was “partially restored; also recorded: significantly recovered”.

Q: And the “mature fibrillar collagen, second harmonic generation (SHG)” value [1, 5]?
A: Its value is “alleviation of fibrotic collagen deposition; also recorded: decreased kidney fibrosis”.

Q: What about the “collagen deposition and maturation, picrosirius red staining (brightfield and polarized light)” value ([1]; 2 weeks after UIR, pUR4 vs III-11C, 25 mg/kg/d) of the same sequence?
A: Its value is “decreased; also recorded: attenuated”.

Q: And the “periglomerular fibrosis (fibronectin, α-SMA and vimentin surrounding glomeruli)” value ([1]; 14 days after UIR, 25 mg/kg/d)?
A: Its value is “reduced periglomerular fibrosis”.

Q: What about the “alpha-smooth muscle actin (α-SMA) expression / positive cells, immunostaining” value [1, 6] of the same sequence?
A: Its value is “abrogated; also recorded: diminished”.

Q: What about the “collagen I deposition, immunofluorescence” value [1, 6] of the same sequence?
A: The value was “reduces this expansion; also recorded: concomitant decrease”.

Q: What about the “fibronectin deposition in kidney interstitium, immunofluorescence” value [1, 6] of the same sequence?
A: Its value is “reduces this expansion; also recorded: decreased the amount of fibronectin”.

Q: And the “vimentin expression / expansion of vimentin-positive cells outside the glomerulus, immunostaining” value [1, 6]?
A: The value was “abrogated; also recorded: diminished”.

Q: What about the “CD45+ immune cell accumulation, immunostaining” value [1, 7] of the same sequence?
A: The value was “abrogated”.

Q: And the “tubule damage and cellular infiltration, H&E staining” value [1, 7]?
A: The value was “abrogates; also recorded: decrease in cellular infiltrate and reduced tubule damage”.

Q: What about the “Havcr1 transcript expression, qPCR of kidney lysates” value [1, 8] of the same sequence?
A: The value was “nearly abolished; also recorded: significantly reduced”.

Q: And the “lipocalin-2 (Lcn-2) transcript expression, qPCR of kidney lysates” value [1, 8]?
A: The value was “nearly abolished; also recorded: significantly reduced”.

Q: What about the “NGAL (lipocalin-2) protein expression, immunofluorescent staining” value [1, 9] of the same sequence?
A: Its value is “decreased”.

Q: What about the “Tim-1/Kim-1 (Havcr1) protein expression, immunofluorescent staining” value [1, 9] of the same sequence?
A: Its value is “decreased”.

Q: What about the “effect of injection in animals that underwent sham surgery” value ([1]; sham surgery, PBS vs III-11C vs pUR4) of the same sequence?
A: The value was “no differences were observed”.

Q: And the fibronectin polymerization [2]?
A: Its fibronectin polymerization is “inhibit”.

Q: What about the “fibronectin production or secretion” value [2] of the same sequence?
A: Its value is “not its production or secretion”.

Q: What about the “excess ECM deposition” value (vascular remodeling) of the same sequence?
A: Its value is “attenuates”.

Q: What about the “excess ECM deposition” value (liver fibrosis) of the same sequence?
A: The value was “attenuates”.

Q: And the “deposition of ECM proteins” value ([3]; after myocardial I/R)?
A: Its value is “attenuated”.

Q: What about the neutrophil infiltration ([3]; after myocardial I/R) of the same sequence?
A: The neutrophil infiltration was “reduced”.

Q: What about the “proliferation of activated cardiac myofibroblasts” value ([3]; after myocardial I/R) of the same sequence?
A: Its value is “reduced”.

Q: And the cardiac function [3, 10]?
A: The cardiac function was “improves”.

Q: And the “pathologic fibrosis and cardiac remodeling” value [3, 10]?
A: Its value is “decreases”.

Q: And the fibrosis [4]?
A: Its fibrosis is “attenuate fibrosis”.
